Laboratory results published in PubChem BioAssay (NCI).
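How tested: cells in 96-well plates exposed to compound for 48 hours at five concentrations. Abbreviation: GI50, concentration required for 50% inhibition of growth. At the TGI there is no net growth.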

How the values were obtained:
Test in all cases: NCI-60 cell line screen, 48 h
[1] = test system: 786-0 renal
[2] = test system: A498 renal
[3] = test system: A549 NSCLC
[4] = test system: ACHN renal
[5] = test system: BT-549 breast
[6] = test system: CAKI-1 renal
[7] = test system: CCRF-CEM leukemia
[8] = test system: COLO 205 colon
[9] = test system: DU-145 prostate
[10] = test system: EKVX NSCLC
[11] = test system: HCC-2998 colon
[12] = test system: HCT-116 colon
[13] = test system: HCT-15 colon
[14] = test system: HL-60(TB) leukemia
[15] = test system: HOP-62 NSCLC
[16] = test system: HOP-92 NSCLC
[17] = test system: HS 578T breast
[18] = test system: HT29 colon
[19] = test system: IGROV1 ovarian
[20] = test system: K-562 leukemia
[21] = test system: KM12 colon
[22] = test system: LOX IMVI melanoma
[23] = test system: M14 melanoma
[24] = test system: MALME-3M melanoma
[25] = test system: MCF7 breast
[26] = test system: MDA-MB-231 breast
[27] = test system: MDA-MB-435
[28] = test system: MOLT-4 leukemia
[29] = test system: NCI-H226 lung
[30] = test system: NCI-H23 lung
[31] = test system: NCI-H460 lung
[32] = test system: NCI-H522 lung
[33] = test system: NCI/ADR-RES ovarian
[34] = test system: OVCAR-3 ovarian
[35] = test system: OVCAR-4 ovarian
[36] = test system: OVCAR-5 ovarian
[37] = test system: OVCAR-8 ovarian
[38] = test system: PC-3 prostate
[39] = test system: RPMI-8226 leukemia
[40] = test system: RXF 393 renal
[41] = test system: SF-268 CNS
[42] = test system: SF-295 CNS
[43] = test system: SF-539 CNS
[44] = test system: SK-MEL-2 melanoma
[45] = test system: SK-MEL-28 melanoma
[46] = test system: SK-MEL-5 melanoma
[47] = test system: SK-OV-3 ovarian
[48] = test system: SN12C renal
[49] = test system: SNB-19 CNS
[50] = test system: SNB-75 CNS
[51] = test system: SW-620 colon
[52] = test system: T-47D breast
[53] = test system: TK-10 renal
[54] = test system: U251 CNS
[55] = test system: UACC-257 melanoma
[56] = test system: UACC-62 melanoma
[57] = test system: UO-31 renal

Cc1cc(Cl)ccc1OCc1nn2c(CCCCc3nnc4sc(COc5ccc(Cl)cc5C)nn34)nnc2s1
GI50 [1]: 26.7 µM | TGI [1]: 55.5 µM | GI50 [2]: 1670 nM | TGI [2]: 8.21 µM | GI50 [3]: 27 µM | TGI [3]: > 100 µM | GI50 [4]: 34.1 µM | TGI [4]: > 100 µM | GI50 [5]: 11.6 µM | TGI [5]: 51.8 µM | GI50 [6]: 4.52 µM | TGI [6]: > 55.3 µM | GI50 [7]: 33.7 µM | TGI [7]: > 61.6 µM | GI50 [8]: 43.5 µM | TGI [8]: > 100 µM | GI50 [9]: 13.9 µM | TGI [9]: > 100 µM | GI50 [10]: 11.3 µM | TGI [10]: > 76.2 µM | GI50 [11]: 30.2 µM | TGI [11]: > 100 µM | GI50 [12]: 32.2 µM | TGI [12]: > 81 µM | GI50 [13]: 47.1 µM | TGI [13]: > 100 µM | GI50 [14]: > 94.2 µM | TGI [14]: > 100 µM | GI50 [15]: 32.2 µM | TGI [15]: 58.5 µM | GI50 [16]: 34.2 µM | TGI [16]: > 68.8 µM | GI50 [17]: 544 nM | GI50 [18]: 43.6 µM | TGI [18]: > 100 µM | GI50 [19]: 28.4 µM | TGI [19]: > 100 µM | GI50 [20]: > 73.2 µM | TGI [20]: > 100 µM | GI50 [21]: 17.2 µM | TGI [21]: > 100 µM | GI50 [22]: 28.2 µM | TGI [22]: > 100 µM | GI50 [23]: 45.9 µM | TGI [23]: > 100 µM | GI50 [24]: 29.2 µM | TGI [24]: > 86.1 µM | GI50 [25]: 21.9 µM | TGI [25]: > 73.2 µM | GI50 [26]: 17.7 µM | TGI [26]: > 78.6 µM | GI50 [27]: 7.12 µM | TGI [27]: > 57.8 µM | GI50 [28]: 25.5 µM | TGI [28]: > 100 µM | GI50 [29]: 21.8 µM | TGI [29]: 74.5 µM | GI50 [30]: 29.8 µM | TGI [30]: > 100 µM | GI50 [31]: 24.7 µM | TGI [31]: > 93.6 µM | GI50 [32]: 20.8 µM | TGI [32]: 61.7 µM | GI50 [33]: 23 µM | TGI [33]: 74 µM | GI50 [34]: 7.99 µM | TGI [34]: 72.2 µM | GI50 [35]: 21.2 µM | TGI [35]: > 69.6 µM | GI50 [36]: > 100 µM | TGI [36]: > 100 µM | GI50 [37]: 8.99 µM | TGI [37]: > 83.1 µM | GI50 [38]: 22.4 µM | TGI [38]: > 80.1 µM | GI50 [39]: 18.9 µM | TGI [39]: > 100 µM | GI50 [40]: 18 µM | TGI [40]: 62.8 µM | GI50 [41]: 23 µM | TGI [41]: > 76.7 µM | GI50 [42]: 8.28 µM | TGI [42]: 76.2 µM | TGI [43]: 1470 nM | GI50 [44]: > 63.4 µM | TGI [44]: > 89.5 µM | GI50 [45]: 52.7 µM | TGI [45]: > 100 µM | GI50 [46]: 1680 nM | TGI [46]: 9.75 µM | GI50 [47]: 35.4 µM | TGI [47]: 73.1 µM | GI50 [48]: 37.8 µM | TGI [48]: > 100 µM | GI50 [49]: 48.9 µM | TGI [49]: > 80.4 µM | GI50 [50]: 13.8 µM | TGI [50]: 51 µM | GI50 [51]: 3.48 µM | TGI [51]: > 41 µM | GI50 [52]: 14.6 µM | TGI [52]: 57.2 µM | GI50 [53]: 26.2 µM | TGI [53]: 74.2 µM | GI50 [54]: 25.3 µM | TGI [54]: > 74.7 µM | GI50 [55]: 8.41 µM | TGI [55]: > 100 µM | GI50 [56]: 22.6 µM | TGI [56]: > 100 µM | GI50 [57]: 14.5 µM | TGI [57]: > 100 µM
